Laboratory results: PubChem BioAssay (NCI)
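All cell lines were grown in 96-well plates and treated with compound for 48 hours. GI50 is the concentration that inhibits growth by half. TGI: concentration producing complete growth inhibition.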

Tests used:
Experiment in all cases: growth of human tumour cells (NCI), 48 h
A498 renal = tested on: A498 renal
KM12 colon = tested on: KM12 colon
K-562 leukemia = tested on: K-562 leukemia
A549 NSCLC = tested on: A549 NSCLC
NCI-H460 lung = tested on: NCI-H460 lung
SK-MEL-2 melanoma = tested on: SK-MEL-2 melanoma
UACC-62 melanoma = tested on: UACC-62 melanoma
UACC-257 melanoma = tested on: UACC-257 melanoma
HOP-62 NSCLC = tested on: HOP-62 NSCLC
CAKI-1 renal = tested on: CAKI-1 renal

Structure (SMILES)	GI50 (A498 renal) [µM]	TGI (A498 renal) [µM]	GI50 (KM12 colon) [µM]	TGI (KM12 colon) [µM]	GI50 (K-562 leukemia) [µM]	TGI (K-562 leukemia) [µM]	GI50 (A549 NSCLC) [µM]	TGI (A549 NSCLC) [µM]	GI50 (NCI-H460 lung) [µM]	TGI (NCI-H460 lung) [µM]	GI50 (SK-MEL-2 melanoma) [µM]	TGI (SK-MEL-2 melanoma) [µM]	GI50 (UACC-62 melanoma) [µM]	TGI (UACC-62 melanoma) [µM]	GI50 (UACC-257 melanoma) [µM]	TGI (UACC-257 melanoma) [µM]	GI50 (HOP-62 NSCLC) [µM]	TGI (HOP-62 NSCLC) [µM]	TGI (CAKI-1 renal) [µM]	GI50 (CAKI-1 renal) [µM]
CS(=O)(=O)Nc1cncc(-c2ccc3ncnc(Nc4ccc(F)c(Cl)c4)c3c2)c1	0.57	3.2	3.49	13.3	3.88	20.1	3.75	17.4	4.22	16	1.5	3.79	2.22	11.8	4.59	23	2.51	20.2		
CCC(C)CCOC(=O)c1ccc(N=Cc2ccc(C=Nc3ccc(C(=O)OCCC(C)CC)cc3)cc2)cc1 (configuration not stated)		> 100				> 100		> 100		> 100		> 100		> 100		> 100		> 100	> 100	
Cc1c(Cl)cccc1NC(=O)C(=O)C(C(=O)c1ccccc1-c1ccccc1)C1OC(=O)c2ccccc21 (configuration not stated)				39.4		> 100		66.8		76.3		32.6		37.3		46.8		35.5		
Cn1cc(C(=O)c2ccccc2)c2ccccc2c1=O				> 100				> 100		> 100		> 100		> 100		> 100		71.8	> 100	
Cc1nc(-n2nc(-c3ccccc3)cc2-c2ccccc2)sc1C(=O)/C=C/c1ccc(/C=C/C(=O)c2sc(-n3nc(-c4ccccc4)cc3-c3ccccc3)nc2C)cc1				35.8		> 100		> 100		95.7		51.8				45.6		54.2	51.6	
Cc1cn(C2CC(O)C(COC(=O)c3ccccc3)O2)c(=O)[nH]c1=O (configuration not stated)		> 100		> 100		> 100		> 100		> 100				> 100		> 100		> 100	> 100	
COC(=O)C(Cc1cc(OC)c(OC)c(OC)c1)C(=O)OC				> 320		> 320		> 320		> 320		> 320		> 320		> 320		> 320	> 320	
N.N.N.N.N.[Co+3].[I-].[N-]=[N+]=[N-]	> 100	> 100	> 100	> 100	> 100	> 100	> 100	> 100	> 100	> 100	> 100	> 100	89.7	> 100	> 100	> 100	> 100	> 100		
N#CCCN(c1ccc(C=Nc2ccccc2)cc1)S(=O)(=O)c1ccccc1		> 100		> 100		> 100		> 100				> 100		> 100		> 100		> 100	> 100	
CC1=CC(=O)C2=C(C)CCC3C(C)C(=O)OC3C12 (configuration not stated)		> 100		> 100				> 100		> 100		> 100		> 100		> 100		> 100	> 100	
Cc1cc(O)c(=O)cc2c1C[C@H]1CC(C)(C)/C=C/C[C@]3(C)Oc4cc(=O)c(O)cc(C)c4C[C@H]3C[C@H](O)[C@@]1(C)O2			< 0.01	> 100			< 0.01	2.13	< 0.01	10.3			0.0296	0.157	0.0215	0.0895	0.02	0.0987		0.0225
COC(=O)CCC(NC(=S)N/N=C(\C)c1cnc2ccccc2n1)C(=O)OC (configuration not stated)		> 100		80.4		> 100		> 100		> 100		> 100		38.5		> 100		> 100		
O=C(N/C(=C\c1ccc(Cl)cc1)c1nc2ccccc2[nH]1)c1ccccc1		52.4		33.6		38.8		56.1		49.7		42.2		32.3		46.2			54.5	
CCN(CC)c1cccc2c1/C(=N/O)CCCC2				> 100		> 100		> 100		> 100		> 100		> 100		> 100		> 100		
O=C(CC(Cl)=C(Cl)Cl)Nc1ccccc1	> 100	> 100	> 100	> 100			> 100	> 100	> 100	> 100	> 100	> 100	> 100	> 100	> 100	> 100	> 100	> 100		
CCCNC(=S)/N=C/c1c(O)cc(C)oc1=O				> 100				> 100		> 100		> 100		> 100		> 100		> 100	> 100	
CN(CCN1C(=O)c2cc([N+](=O)[O-])cc3cc([N+](=O)[O-])cc(c23)C1=O)CCN1C(=O)c2cc([N+](=O)[O-])cc3cc([N+](=O)[O-])cc(c23)C1=O		> 100		> 35		> 100		> 100				5.21		3.8		9.42		> 100	0.618	
O=C1C2Nc3ccccc3SC2C(=O)N1c1ccc(Br)cc1 (configuration not stated)		82.5		> 100		> 100		> 100		> 100		> 100		> 100		> 100		55.1		
O=c1[nH]c2ccccc2c2ccccc12	44.7	> 100	> 100	> 100	> 100	> 100	> 100	> 100	70.1	> 100	> 100	> 100	> 100	> 100			> 100	> 100	> 100	> 100
CN1C(=O)CCC1(O)C1C=CC=CC1 (configuration not stated)				> 100		> 100		> 100		> 100				> 100		> 100		> 100	> 100	
